Measured values taken from BindingDB's records for doi:10.1016/j.bmc.2012.01.011 (Korea Research Institute of Bioscience and Biotechnology, 2012).

Biological target: Neuraminidase (Influenza A virus (strain A/Brevig Mission/1/1918 H1N1), UniProt Q9IGQ6)
Assay: Inhibition of recombinant influenza A virus H1N1 A/Bervig_Mission/1/18 sialidase activity using 4-methylumbelliferyl-alpha-D-N-acetylneuraminic acid sodium salt hydrate as substrate by fluorimetric analysis

Sequence of Neuraminidase (Q9IGQ6 whole entry): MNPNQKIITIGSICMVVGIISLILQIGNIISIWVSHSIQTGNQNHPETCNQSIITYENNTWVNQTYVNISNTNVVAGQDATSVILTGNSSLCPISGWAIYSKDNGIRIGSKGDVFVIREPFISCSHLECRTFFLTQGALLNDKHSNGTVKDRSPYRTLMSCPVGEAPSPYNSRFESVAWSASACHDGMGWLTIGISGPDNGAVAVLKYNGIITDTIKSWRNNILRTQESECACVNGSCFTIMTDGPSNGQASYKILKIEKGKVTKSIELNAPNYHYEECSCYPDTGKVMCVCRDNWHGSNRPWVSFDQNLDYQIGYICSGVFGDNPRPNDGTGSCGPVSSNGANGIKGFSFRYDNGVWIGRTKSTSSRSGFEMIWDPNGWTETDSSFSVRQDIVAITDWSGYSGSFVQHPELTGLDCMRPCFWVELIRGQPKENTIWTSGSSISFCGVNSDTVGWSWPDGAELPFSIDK

Structure (SMILES)	IC50 [µM]
CC(C)=CC=C(OC(=O)C(C)C)c1cc(O)c2c(O)ccc(O)c2c1O	40.5
CC(C)=CC=C(OC(=O)CC(C)(C)O)c1cc(O)c2c(O)ccc(O)c2c1O [(R)-1-(5,8-dihydroxy-1,4-dioxo-1,4-dihydronaphthalen-2-yl)-4-methylpent-3-enyl 3-hydroxy-3-methylbutanoate]	40.5
